Where a name gives a salt, the structure may show the parent alone.
test system: NCI-H226; test: 72H TEAD Proliferation Assay (Cell Titer Glo 2.0); type: cell-based; settings: CTG 2.0, cell line not given (NCI-H226 responsive, NCI-H28 non-responsive)
Procedure, shortened: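 NF2-deficient NCI-H226 mesothelioma cells, TEAD-dependent, treated 72 h; NF2-wild-type NCI-H28 serves as the TEAD-independent counter-screen for off-target cytotoxicity. Viable cells quantified by CellTiter-Glo 2.0 luminescence; background and time-zero signal subtracted, GI50 from nonlinear dose-response fit.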

Structure (SMILES)	GI50
CC(C)(C)c1ccc(-c2nc3cc(S(C)(=N)=O)ccc3n3cccc23)cc1 (single isomer, unassigned) [I-208, (4-(4-(tert-Butyl)phenyl)pyrrolo[1,2-a]quinoxalin-7-yl)(imino)(methyl)-16-sulfanone]	1000 to 5000 nM

same assay, conditions: Homo sapiens, NCI-H226, 72 h, CTG 2.0, cell line not given (NCI-H226 responsive, NCI-H28 non-responsive)

Structure (SMILES)	GI50
O=C(/C=C/CF)NCc1cn2c(F)cnc2c(-c2ccc(C(F)(F)F)cc2)n1 [I-249, (E)-4-Fluoro-N-((3-fluoro-8-(4-(trifluoromethyl)phenyl)imidazo[1,2-a]pyrazin-6-yl)methyl)but-2-enamide]	≤ 1000 nM
O=C(O)c1ccc2c(c1)nc(N1CCC3(CC1)COC3)c1cccn12 [I-29, 4-(2-Oxa-7-azaspiro[3.5]nonan-7-yl)pyrrolo[1,2-a]quinoxaline-7-carboxylic acid]	> 10000 nM
C=CC(=O)Nc1cccc2nc(-c3ccc(C(C)(C)C)cc3)c(C)cc12 [I-99, N-(2-(4-(tert-butyl)phenyl)-3-methylquinolin-5-yl)acrylamide]	> 10000 nM
COc1cc(-c2ccc(C(F)(F)F)cc2)nc2cc(C(=O)N[C@@H](CO)CC(C)C)ccc12 [I-370, (R)—N-(1-hydroxy-4-methylpentan-2-yl)-4-methoxy-2-(4-(trifluoromethyl)phenyl)quinoline-7-carboxamide]	1000 to 5000 nM
O=C(O)c1ccc2c(c1)nc(N1CC3C(C1)C3C(F)(F)F)c1cccn12 (stereo not shown) [I-128, 4-(6-(Trifluoromethyl)-3-azabicyclo[3.1.0]hexan-3-yl)pyrrolo[1,2-a]quinoxaline-7-carboxylic acid hydrochloride]	1000 to 5000 nM
CC[C@H](CO)NC(=O)c1ccc2c(OC)cc(-c3ccc(C(F)(F)F)cc3)nc2c1 [I-326, (R)—N-(1-hydroxybutan-2-yl)-4-methoxy-2-(4-(trifluoromethyl)phenyl)quinoline-7-carboxamide]	≤ 1000 nM
C=CC(=O)NCc1cc(-c2ccc(C(F)(F)F)cc2)nn2ccnc12 [I-290, N-((6-(4-(trifluoromethyl)phenyl)imidazo[1,2-b]pyridazin-8-yl)methyl)acrylamide]	≤ 1000 nM
CC(C)(C)c1ccc(-c2cnc3ccc(-c4nnn[nH]4)cc3n2)cc1 [I-160, 2-(4-(tert-Butyl)phenyl)-7-(1H-tetrazol-5-yl)quinoxaline]	> 10000 nM
CC(C)C1CCN(c2nc3cc(C(=O)O)ccc3n3cccc23)CC1 [I-12, 4-(4-Isopropylpiperidin-1-yl)pyrrolo[1,2-a]quinoxaline-7-carboxylic acid]	1000 to 5000 nM
N#Cc1cc(C(F)(F)F)ccc1-c1nc2cc(C(=O)O)ccc2n2cccc12 [I-54, 4-(2-Cyano-4-(trifluoromethyl)phenyl)pyrrolo[1,2-a]quinoxaline-7-carboxylic acid]	5000 to 10000 nM
COc1cc(-c2ccc(C(F)(F)F)cc2F)nc2cc(C(=O)N[C@H](C)CO)ccc12 [I-337, (R)-2-(2-fluoro-4-(trifluoromethyl)phenyl)-N-(1-hydroxypropan-2-yl)-4-methoxyquinoline-7-carboxamide]	≤ 1000 nM
C=CC(=O)NCc1nc(-c2ccc(C(F)(F)F)cc2)c2ncccc2n1 [I-305, N-((4-(4-(trifluoromethyl)phenyl)pyrido[3,2-d]pyrimidin-2-yl)methyl)acrylamide]	≤ 1000 nM
C=CC(=O)NC1CCN(c2cn3ccnc3c(-c3ccc(C(F)(F)F)cc3)n2)C1 (stereo not shown) [I-227, N-(1-(8-(4-(trifluoromethyl)phenyl)imidazo[1,2-a]pyrazin-6-yl)pyrrolidin-3-yl)acrylamide]	≤ 1000 nM
COc1cc(-c2ccc(C(F)(F)F)cc2)nc2cc(C(=O)O)ccc12 [I-181, 4-methoxy-2-(4-(trifluoromethyl)phenyl)quinoline-7-carboxylic acid]	≤ 1000 nM
CC(C)(C)c1ccc(-c2nc3cc(NC(=O)CN)ccc3n3cccc23)cc1 [I-206, 2-Amino-N-(4-(4-(tert-butyl)phenyl)pyrrolo[1,2-a]quinoxalin-7-yl)acetamide]	1000 to 5000 nM
Cc1cc2c(N3CCC(C(F)(F)F)CC3)nc3cc(C(=O)O)ccc3n2c1 [I-406, 2-Methyl-4-(4-(trifluoromethyl)piperidin-1-yl)pyrrolo[1,2-a]quinoxaline-7-carboxylic acid]	≤ 1000 nM
CN(C)CC(=O)Nc1ccc2c(c1)nc(-c1ccc(C(C)(C)C)cc1)c1cccn12 [I-205, N-(4-(4-(tert-butyl)phenyl)pyrrolo[1,2-a]quinoxalin-7-yl)-2-(dimethylamino)acetamide]	1000 to 5000 nM
C=CC(=O)N1CCc2c(cccc2-c2ccc(C(F)(F)F)cc2)C1 [I-136, 1-(5-(4-(Trifluoromethyl)phenyl)-3,4-dihydroisoquinolin-2(1H)-yl)prop-2-en-1-one]	≤ 1000 nM
C[C@H](CO)NC(=O)c1ccc2c(OC(F)F)cc(-c3ccc(C(F)(F)F)cc3)nc2c1 [I-330, (R)-4-(difluoromethoxy)-N-(1-hydroxypropan-2-yl)-2-(4-(trifluoromethyl)phenyl)quinoline-7-carboxamide]	≤ 1000 nM
C=CC(=O)NCc1nc(-c2ccc(C(C)(C)C)cc2)c2ccc(F)cc2n1 [I-446, N-((4-(4-(tert-butyl)phenyl)-7-fluoroquinazolin-2-yl)methyl)acrylamide]	≤ 1000 nM
COc1cc(-c2ccc(C(F)(F)F)cc2)nc2cc(C(=O)N[C@@H](CO)C3CC3)ccc12 [I-344, (R)—N-(1-cyclopropyl-2-hydroxyethyl)-4-methoxy-2-(4-(trifluoromethyl)phenyl)quinoline-7-carboxamide]	≤ 1000 nM

Structure (SMILES)	GI50
COc1cc(-c2ccc(C(F)(F)F)cc2)nc2cc(C(=O)N[C@@H](C)c3ccccn3)ccc12 [I-327, (S)-4-methoxy-N-(1-(pyridin-2-yl)ethyl)-2-(4-(trifluoromethyl)phenyl)quinoline-7-carboxamide]	≤ 1000 nM
O=C(O)c1ccc2c(c1)nc(-c1ccc(OC(F)(F)F)cc1)c1cccn12 [I-192, 4-(4-(trifluoromethoxy)phenyl)pyrrolo[1,2-a]quinoxaline-7-carboxylic acid]	≤ 1000 nM
CC(C)(C)c1ccc(-c2nc(C(=O)O)cn3cncc23)cc1 [I-94, 8-(4-(tert-Butyl)phenyl)imidazo[1,5-a]pyrazine-6-carboxylic acid]	> 10000 nM
C=CC(=O)NCc1cn2cnnc2c(-c2ccc(C(F)(F)F)cc2)n1 [I-317, N-((8-(4-(trifluoromethyl)phenyl)-[1,2,4]triazolo[4,3-a]pyrazin-6-yl)methyl)acrylamide]	1000 to 5000 nM
C=CC(=O)Nc1ccc2c(c1)nc(-c1ccc(C(F)(F)F)cc1F)c1cccn12 [I-114, N-(4-(2-Fluoro-4-(trifluoromethyl)phenyl)pyrrolo[1,2-a]quinoxalin-7-yl) acrylamide]	≤ 1000 nM
CC(C)(C)c1ccc(-c2nc(CCc3nnn[nH]3)cn3ccnc23)cc1 [I-156, 6-(2-(1H-tetrazol-5-yl)ethyl)-8-(4-(tert-butyl)phenyl)imidazo[1,2-a]pyrazine]	> 10000 nM
C=CC(=O)NCc1cn2ccnc2c(N2CCC3(CC2)CC3)n1 [I-437, N-((8-(6-azaspiro[2.5]octan-6-yl)imidazo[1,2-a]pyrazin-6-yl)methyl)acrylamide]	1000 to 5000 nM
CC(C)(C)c1ccc(CCn2ccc3cc(C(=O)O)ccc32)cc1 [Compound I-161]	> 10000 nM
Cc1cc(-c2ccc(C(F)(F)F)cc2)nc2cc(C(=O)O)ccc12 [I-89, 4-Methyl-2-(4-(trifluoromethyl)phenyl)quinoline-7-carboxylic acid]	≤ 1000 nM
COc1cc(-c2ccc(C(F)(F)F)cc2)nc2cc(C(=O)NC(C)(C)CO)ccc12 [I-352, N-(1-hydroxy-2-methylpropan-2-yl)-4-methoxy-2-(4-(trifluoromethyl)phenyl)quinoline-7-carboxamide]	1000 to 5000 nM
C=CC(=O)Nc1ccc2c(c1)nc(-c1ccc(C(F)(F)F)cn1)c1nccn12 [I-312, N-(4-(5-(trifluoromethyl)pyridin-2-yl)imidazo[1,2-a]quinoxalin-7-yl)acrylamide]	≤ 1000 nM
COc1nc(-c2ccc(C(F)(F)F)cc2)nc2cc(C(=O)O)ccc12 [I-433, 4-methoxy-2-(4-(trifluoromethyl)phenyl)quinazoline-7-carboxylic acid]	≤ 1000 nM
O=C(O)c1ccc2c(c1)nc(-c1ccccc1)c1nccn12 [I-63, 4-Phenylimidazo[1,2-a]quinoxaline-7-carboxylic acid]	> 10000 nM
O=C(O)c1ccc2c(c1)nc(N1CCC3(CC1)CC3)c1cncn12 [I-116, 4-(6-Azaspiro[2.5]octan-6-yl)imidazo[1,5-a]quinoxaline-7-carboxylic acid]	> 10000 nM
COc1nc(-c2ccc(C(F)(F)F)cc2)nc2cc(C(=O)N[C@H](C)CO)ccc12 [I-434, (R)—N-(1-hydroxypropan-2-yl)-4-methoxy-2-(4-(trifluoromethyl)phenyl)quinazoline-7-carboxamide]	≤ 1000 nM
C=CC(=O)Nc1ccc2cnc(-c3ccc(C(C)(C)C)cc3)nc2c1 [I-80, N-(2-(4-(tert-butyl)phenyl)quinazolin-7-yl)acrylamide]	≤ 1000 nM
C=CC(=O)NCc1cn2cc(C)nc2c(-c2ccc(C(F)(F)F)cc2)n1 [I-241, N-((2-methyl-8-(4-(trifluoromethyl)phenyl)imidazo[1,2-a]pyrazin-6-yl)methyl)acrylamide]	≤ 1000 nM
CC(C)Oc1cc(-c2ccc(C(F)(F)F)cc2)nc2cc(C(=O)O)ccc12 [I-394, 4-isopropoxy-2-(4-(trifluoromethyl)phenyl)quinoline-7-carboxylic acid]	≤ 1000 nM
CCOc1nc(-c2ccc(C(F)(F)F)cc2)nc2cc(C(=O)O)ccc12 [I-432, 4-ethoxy-2-(4-(trifluoromethyl)phenyl)quinazoline-7-carboxylic acid]	≤ 1000 nM
CC[C@H](CO)NC(=O)c1ccc2nc(C)c(-c3ccc(C(F)(F)F)cc3)nc2c1 [I-423, (R)—N-(1-hydroxybutan-2-yl)-2-methyl-3-(4-(trifluoromethyl)phenyl)quinoxaline-6-carboxamide]	5000 to 10000 nM
COc1cc(-c2ccc(C(F)(F)F)cc2)nc2cc(C(=O)N[C@@H](C)CO)ccc12 [I-325, (S)—N-(1-hydroxypropan-2-yl)-4-methoxy-2-(4-(trifluoromethyl)phenyl)quinoline-7-carboxamide]	≤ 1000 nM

Reference: patent publication US12655150B2 (Cedilla Therapeutics, Inc., priority 2021, dated 2026)
